The values that follow come from patent US7947827B2 (priority 2006, dated 2011).

On the set-up of data set [1]: species or system humans. The conditions noted are these: in vivo.
Details of data set [2]: species or system sheep. The conditions noted are these: in vivo.
For data set [3] the following is noted: rat, in vivo; cited from earlier work.
For data set [4] the following is noted: rhesus monkey, in vivo, iv.
The conditions of data set [5]: rhesus monkey, in vivo, iv; cited from earlier work.
The conditions of data set [6]: in vivo, po; cited from earlier work.
For data set [7] the following is noted: in vivo, ip; cited from earlier work.
For data set [8] the following is noted: mouse, in vivo, cited from earlier work.
For data set [9] the following is noted: rabbit, in vivo, cited from earlier work.
For data set [10] the following is noted: rat, in vivo, cited from earlier work.
The conditions of data set [11]: dog, in vivo, cited from earlier work.
For data set [12] the following is noted: pig, in vivo, cited from earlier work.
The subject of data set [13] is NQO activity in cultured murine hepatoma cells. As to conditions: cited from earlier work.
The test system of data set [14] is azoxymethane- and IQ-induced aberrant crypt foci. As to conditions: in vivo; cited from earlier work.
The conditions of data set [15]: rat, in vivo; cited from earlier work. The source holds these as a separate data set.
The conditions of data set [16]: rat, in vivo; cited from earlier work. This is another data set of the same source.
The conditions of data set [17]: guinea pig, in vivo; cited from earlier work.
For data set [18] the following is noted: rat, in vivo; cited from earlier work. The source holds these as a separate data set.
For data set [19] the following is noted: in vivo; cited from earlier work.
For data set [20] the following is noted: rat, in vivo; cited from earlier work. This is another data set of the same source.
Data set [21] has as its system bone marrow cells of mice. As to conditions: mouse, in vivo; cited from earlier work.
For data set [22] the following is noted: mouse, in vivo, po, 2500 mg/kg; cited from earlier work.

Read-outs that look alike come from different tables or passages of the source.

With `COc1cc2c(c3oc(=O)c4c(c13)CCC4=O)[C@@H]1C=CO[C@@H]1O2` [AFB1, aflatoxin B1], in [1], the “terminal half-life, conservative estimate” value is given as “less than 24 hours” and the “time to complete absorption” value was in the range of 0.5 to 1.0 h. Moreover, the t1/2 entry in [2] is reported as “approximately 24 hours”. In addition, the “absorption rate constant (ka)” value in data set [3] was 5.84 ± 0.05 h⁻¹. For the same compound, the “terminal half-life (t1/2β) from all routes of excretion” value in data set [4] is listed as “approximately 24 hours”. Further, in data set [5], the “dose eliminated in urine as chloroform extractable, first 24 hours” value is recorded as roughly 10%; the “dose eliminated in urine as unbound, first 24 hours” value is roughly 30%; the “dose eliminated in urine within first 24 hours” value was 40%; the “dose remaining in the liver at 100 hours” value is 13.6%. Also, in [5], the “dose remaining in the plasma at 100 hours” value is reported as 5.8%; the “fecal excretion of dose, 24 to 48 hours” value was 20%; the “fecal excretion of dose, 48 to 72 hours” value is roughly 6%; the “fecal excretion of dose, 72 to 100 hours” value is roughly 3%. For the same compound, in data set [5], the “fecal excretion of dose, first 24 hours” value is roughly 4% and the “total excreta after 100 hours, of administered dose” value is on record as 73.1%. In data set [6], the “total dose excreted in first 48 hours” value is given as “approximately 90%”.

Sodium chlorophyllin copper complex: the median lethal dose (LD50) (commonly the dose at which mortality reaches 50%) in [7] is greater than 60 mg/kg; in [8] (im), greater than 500 mg/kg; in [8] (ip), greater than 1000 mg/kg; in [8] (iv), greater than 400 mg/kg; in data set [9] (im), greater than 60 mg/kg; in data set [9] (ip), greater than 500 mg/kg. Also, the LD50 in [9] (iv) is greater than 200 mg/kg; in [10] (im) it was greater than 250 mg/kg; in data set [10] (ip), greater than 1000 mg/kg; in data set [10] (iv), greater than 250 mg/kg; in data set [11] (im), greater than 50 mg/kg; in [11] (ip), greater than 200 mg/kg. The LD50 in data set [11] (iv) is greater than 200 mg/kg; in data set [12] (im), greater than 20 mg/kg; in data set [12] (iv) it was greater than 10 mg/kg.

chlorin e4 ethyl ester: in data set [13], the “concentration required to double NQO activity (CD)” value is 20 µM and the “potency as NQO inducer relative to Chl” value is 50 times.

Consider chlorophyll, for which the “azoxymethane- and IQ-induced aberrant crypt foci” value in data set [14] is on record as “inhibited”.

For the compound “potassium sodium chlorophyllin copper complex [sodium potassium chlorophyllin]”, the effects in offspring entry in [15] was “locomotory difficulties and skeletal muscle defects”. The “copper storage in liver, kidney or spleen” value in data set [16] was “No copper storage occurred”. The 50% lethal dose (LD50) in [8] (po) is 7000 mg/kg. Further, the “ill effects or pathological change” value in data set [17] is on record as “without ill effects or pathological change”. Moreover, the adverse effects result in [18] was “without any adverse effects except weight loss related to food refusal”. For the same compound, the scurvy entry in data set [19] is “no evidence of scurvy”. In addition, in data set [20], the “Cu toxicity or deposition in liver, kidney or spleen” value is given as “no evidence of Cu toxicity or deposition” and the “gross or histopathological changes” value is given as “No gross or histopathological changes”.

In the case of sodium copper chlorophyllin, in data set [13], the “concentration required to double NQO activity (CD)” value is 30 µM and the “potency as NQO inducer relative to Chl” value was roughly 10 times. The “reducing clastogenicity from cesium chloride, mercuric chloride and cobalt chloride” value in [21] is recorded as “demonstrated efficacy”. Moreover, the ill effects entry in data set [22] was “without any ill effects”.
